Results from patent publication US20070093520A1, “Method of treatment of diarrhea-predominant irritable bowel syndrome in a subject” (priority 2005, published 2007).

System: diarrhea-predominant IBS subjects
Test: 3007 Study: open-label 52-week safety study, adverse events and withdrawals
Conditions: C/C group

Cc1nccn1C[C@H]1CCc2c(c3cccc4c3n2CCC4)C1=O [cilansetron, (R)-(−)-4,5,6,8,9,10-hexahydro-10-[(2-methyl-1H-imidazol-1-yl)methyl]-11H-pyrido-[3,2,1-jk]-carbazol-11-one]
TEAE: Abdominal Therapeutic Procedures NEC: 0 n (%) | TEAE: Abdominoplasty: 0 n (%) | TEAE: Abnormal Chest Sounds NOS: 0 n (%) | TEAE: Acne NOS: 1 (<1%) n (%) | TEAE: Acnes: 1 (<1%) n (%) | TEAE: Acquired Hypothyroidism: 1 (<1%) n (%) | TEAE: Acrochordons: 0 n (%) | TEAE: Adenomyosis*: 1 (<1%) n (%) | TEAE: Age Related Issues: 0 n (%) | TEAE: Allergic Conditions NEC: 1 (<1%) n (%) | TEAE: Allergies to Foods, Food Additives, Drugs and Other Chemicals: 1 (<1%) n (%) | TEAE: Allergy to Insect Sting: 0 n (%) | TEAE: Alopecia: 0 n (%) | TEAE: Alopecias: 0 n (%) | TEAE: Amenorrhoea NOS*: 1 (<1%) n (%) | TEAE: Anaemia NOS: 0 n (%) | TEAE: Anaemias NEC: 0 n (%) | TEAE: Angina Pectoris: 3 (1%) n (%) | TEAE: Anorexia: 1 (<1%) n (%) | TEAE: Anxiety: 3 (1%) n (%) | TEAE: Anxiety Aggravated: 2 (<1%) n (%) | TEAE: Anxiety Symptoms: 5 (2%) n (%) | TEAE: Apocrine and Eccrine Gland Disorders: 0 n (%) | TEAE: Appetite Disorders: 1 (<1%) n (%) | TEAE: Arrhythmia NOS: 1 (<1%) n (%) | TEAE: Asthenic Conditions: 8 (3%) n (%) | TEAE: Asthma Aggravated: 1 (<1%) n (%) | TEAE: Asthma NOS: 1 (<1%) n (%) | TEAE: Atopic Disorders: 4 (2%) n (%) | TEAE: Atrial Fibrillation: 1 (<1%) n (%) | TEAE: Atrioventricular Block First Degree: 1 (<1%) n (%) | TEAE: Basal Cell Carcinoma: 2 (<1%) n (%) | TEAE: Behaviour and Socialisation Disturbances: 0 n (%) | TEAE: Benign Ovarian Tumour*: 0 n (%) | TEAE: Biliary Tract Disorder NOS: 0 n (%) | TEAE: Binocular Eye Movement Disorder NOS: 0 n (%) | TEAE: Bladder Disorders NEC: 0 n (%) | TEAE: Bladder Infections and Inflammations: 0 n (%) | TEAE: Bladder Prolapse: 0 n (%) | TEAE: Bladder and Urethral Symptoms: 6 (2%) n (%) | TEAE: Blood and Lymphatic System Disorders: 3 (1%) n (%) | TEAE: Bone Neoplasm Malignant: 1 (<1%) n (%) | TEAE: Bone Neoplasms Malignant (Excl Sarcomas): 1 (<1%) n (%) | TEAE: Bradyarrhythmia: 0 n (%) | TEAE: Breast Calcifications*: 0 n (%) | TEAE: Breast Cancer NOS*: 0 n (%) | TEAE: Breast Disorder NOS*: 0 n (%) | TEAE: Breast Disorders NEC*: 1 (<1%) n (%) | TEAE: Breast Mass NOS*: 1 (<1%) n (%) | TEAE: Breast and Nipple Neoplasms Malignant*: 0 n (%) | TEAE: Breath Sounds Decreased: 1 (<1%) n (%) | TEAE: Breathing Abnormalities: 2 (<1%) n (%) | TEAE: Bronchospasm and Obstruction: 3 (1%) n (%) | TEAE: Bruising, Ecchymosis and Purpura: 1 (<1%) n (%) | TEAE: Bundle Branch Block Right: 1 (<1%) n (%) | TEAE: Calculus Renal NOS: 3 (1%) n (%) | TEAE: Calculus Ureteric: 1 (<1%) n (%) | TEAE: Cardiac Conduction Disorders: 2 (<1%) n (%) | TEAE: Cardiac Disorders: 10 (4%) n (%) | TEAE: Cardiac Fibrillation NOS: 0 n (%) | TEAE: Cardiac Flutter: 0 n (%) | TEAE: Cardiac Signs and Symptoms NEC: 2 (<1%) n (%) | TEAE: Cataract Unilateral: 1 (<1%) n (%) | TEAE: Cataracts (Excl Congenital): 1 (<1%) n (%) | TEAE: Cerumen Impaction: 2 (<1%) n (%) | TEAE: Chest Discomfort: 0 n (%) | TEAE: Chest Pain: 3 (1%) n (%) | TEAE: Chest Tightness: 1 (<1%) n (%) | TEAE: Cholecystitis and Cholelithiasis: 2 (<1%) n (%) | TEAE: Cholelithiasis: 2 (<1%) n (%) | TEAE: Congenital, Familial and Genetic Disorders: 0 n (%) | TEAE: Conjunctival Infections, Irritations and Inflammations: 2 (<1%) n (%) | TEAE: Conjunctivitis: 1 (<1%) n (%) | TEAE: Conjunctivitis Allergic: 1 (<1%) n (%) | TEAE: Contusion: 1 (<1%) n (%) | TEAE: Cough: 5 (2%) n (%) | TEAE: Coughing and Associated Symptoms: 6 (2%) n (%) | TEAE: Cyst NOS: 1 (<1%) n (%) | TEAE: Cystitis Interstitial: 0 n (%) | TEAE: Dacryostenosis Acquired: 1 (<1%) n (%) | TEAE: Deafness NOS: 1 (<1%) n (%) | TEAE: Dehydration: 1 (<1%) n (%) | TEAE: Depression: 4 (2%) n (%) | TEAE: Depression Aggravated: 3 (1%) n (%) | TEAE: Depressive Disorders: 7 (3%) n (%) | TEAE: Dermal and Epidermal Conditions NEC: 1 (<1%) n (%) | TEAE: Dermatitis Allergic: 0 n (%) | TEAE: Dermatitis Ascribed to Specific Agent: 0 n (%) | TEAE: Dermatitis Contact: 1 (<1%) n (%) | TEAE: Dermatitis Medicamentosa: 0 n (%) | TEAE: Dermatitis NOS: 0 n (%) | TEAE: Dermatitis and Eczema: 2 (<1%) n (%) | TEAE: Dermographism: 0 n (%) | TEAE: Diabetes Mellitus (Incl Subtypes): 2 (<1%) n (%) | TEAE: Diabetes Mellitus Aggravated: 1 (<1%) n (%) | TEAE: Diabetes Mellitus Non-Insulin-Dependent: 1 (<1%) n (%) | TEAE: Disturbances in Initiating and Maintaining Sleep: 6 (2%) n (%) | TEAE: Drug Hypersensitivity: 1 (<1%) n (%) | TEAE: Dry Eye NOS: 2 (<1%) n (%) | TEAE: Dysfunctional Uterine Bleeding*: 1 (<1%) n (%) | TEAE: Dyshidrosis: 0 n (%) | TEAE: Dyspnoea NOS: 2 (<1%) n (%) | TEAE: Dysuria: 1 (<1%) n (%) | TEAE: Ear Disorders NEC: 1 (<1%) n (%) | TEAE: Ear Pain: 1 (<1%) n (%) | TEAE: Ear and Labyrinth Disorders: 6 (2%) n (%) | TEAE: Eczema: 1 (<1%) n (%) | TEAE: Elevated Cholesterol: 3 (1%) n (%) | TEAE: Endocrine Disorders: 2 (<1%) n (%) | TEAE: Endometriosis*: 2 (1%) n (%) | TEAE: Erythema: 1 (<1%) n (%) | TEAE: Erythemas: 1 (<1%) n (%) | TEAE: External Ear Disorders NEC: 2 (<1%) n (%) | TEAE: Eye Disorders: 8 (3%) n (%) | TEAE: Fall: 2 (<1%) n (%) | TEAE: Fatigue: 7 (3%) n (%) | TEAE: Fatigue Aggravated: 1 (<1%) n (%) | TEAE: Febrile Disorders: 2 (<1%) n (%) | TEAE: Fibroma NOS: 0 n (%) | TEAE: Fluid Intake Increased: 0 n (%) | TEAE: Fluid in Middle Ear: 1 (<1%) n (%) | TEAE: Flushing: 1 (<1%) n (%) | TEAE: Food Allergy: 0 n (%) | TEAE: General Disorders and Administration Site Conditions: 23 (9%) n (%) | TEAE: General Signs and Symptoms NEC: 6 (2%) n (%) | TEAE: Gilbert's Syndrome: 0 n (%) | TEAE: Glucose Tolerance Impaired: 0 n (%) | TEAE: Glycosuria: 0 n (%) | TEAE: Goitre: 1 (<1%) n (%) | TEAE: Gout: 2 (<1%) n (%) | TEAE: Haematoma NOS: 1 (<1%) n (%) | TEAE: Haematuria: 4 (2%) n (%) | TEAE: Hallucination NOS: 0 n (%) | TEAE: Hallucination, Auditory: 0 n (%) | TEAE: Hand Fracture: 0 n (%) | TEAE: Hearing Losses: 1 (<1%) n (%) | TEAE: Hepatitis NOS: 1 (<1%) n (%) | TEAE: Hepatobiliary Disorders: 4 (2%) n (%) | TEAE: Hepatobiliary Signs and Symptoms: 1 (<1%) n (%) | TEAE: Hepatocellular Damage and Hepatitis NEC: 1 (<1%) n (%) | TEAE: Hepatosplenomegaly NOS: 1 (<1%) n (%) | TEAE: Hernia NOS: 0 n (%) | TEAE: Hernia Repair NOS: 1 (<1%) n (%) | TEAE: Hernia Repairs: 1 (<1%) n (%) | TEAE: Hernias NEC: 0 n (%) | TEAE: Hot Flushes NOS: 1 (<1%) n (%) | TEAE: Hypercholesterolaemia: 3 (1%) n (%) | TEAE: Hyperglycaemia NOS: 0 n (%) | TEAE: Hyperglycaemic Conditions NEC: 0 n (%) | TEAE: Hyperkeratoses: 0 n (%) | TEAE: Hyperkeratosis: 0 n (%) | TEAE: Hyperlipidaemia NOS: 1 (<1%) n (%) | TEAE: Hyperlipidaemias NEC: 1 (<1%) n (%) | TEAE: Hypersensitivity NOS: 1 (<1%) n (%) | TEAE: Hypertension Aggravated: 1 (<1%) n (%) | TEAE: Hypertension NOS: 7 (3%) n (%) | TEAE: Hypotension NOS: 0 n (%) | TEAE: Immune System Disorders: 5 (2%) n (%) | TEAE: Inborn Errors of Bilirubin Metabolism: 0 n (%) | TEAE: Influenza Like Illness: 3 (1%) n (%) | TEAE: Ingrowing Nail: 0 n (%) | TEAE: Inner Ear Disorders NEC: 1 (<1%) n (%) | TEAE: Inner Ear Infections and Inflammations: 2 (<1%) n (%) | TEAE: Inner Ear Signs and Symptoms: 1 (<1%) n (%) | TEAE: Insomnia: 5 (2%) n (%) | TEAE: Insomnia Exacerbated: 1 (<1%) n (%) | TEAE: Intermenstrual Bleeding*: 1 (<1%) n (%) | TEAE: Irritability: 0 n (%) | TEAE: Ischaemic Coronary Artery Disorders: 4 (2%) n (%)
